Experiment: Cytotoxicity tests
Assay type: cell-based

Compound: CCCCCCCC/C=C\CCCCCCCC(=O)OCc1ccc(N(C)C)cc1 [DMAO, 4-N,N-dimethylaminobenzyloleate]
- cytotoxicity: non-toxic
